Reference: ChEMBL document CHEMBL1148325 (J Med Chem, 2004)

Experiment: In vivo reduction in blood pressure relative to maximum achieved with the K-ATP standard P1075 in spontaneously hypertensive rat

`O=C1CCCC2=C1[C@@H](c1ccc(F)c(Br)c1)C1=C(O)OCC1=N2` showed an ED50 of 2450 nM.
Work on `O=C1OCC2=C1C(c1ccc(F)c(Br)c1)C1=C(O)OCC1=N2` (stereo not drawn) yielded an ED50 of 398 nM.
Compound `O=C1CCCC2=C1[C@H](c1ccc(F)c(Br)c1)C1=C(CCS1(=O)=O)N2` has an ED50 of 427 nM.
